Results taken from ChEMBL document CHEMBL1138833, “Enantioselective synthesis and biological activity of (3S,4R)- and (3S,4S)-3-hydroxy-4-hydroxymethyl- 4-butanolides in relation to PGE2” (J Med Chem, 2004).

Experiments:
[1] = biological target: Prostaglandin E2 receptor EP2 subtype (Homo sapiens) (UniProt P43116); experiment: The percentage decrease in the binding of [3H]PGE2, in the presence of 1000 uM of compound
[2] = biological target: Prostaglandin E2 receptor EP2 subtype (Homo sapiens) (UniProt P43116); experiment: The percentage decrease in the binding of [3H]PGE2, in the presence of 125 uM of compound

Prostaglandin E2 receptor EP2 subtype (Homo sapiens), sequence (P43116 whole entry): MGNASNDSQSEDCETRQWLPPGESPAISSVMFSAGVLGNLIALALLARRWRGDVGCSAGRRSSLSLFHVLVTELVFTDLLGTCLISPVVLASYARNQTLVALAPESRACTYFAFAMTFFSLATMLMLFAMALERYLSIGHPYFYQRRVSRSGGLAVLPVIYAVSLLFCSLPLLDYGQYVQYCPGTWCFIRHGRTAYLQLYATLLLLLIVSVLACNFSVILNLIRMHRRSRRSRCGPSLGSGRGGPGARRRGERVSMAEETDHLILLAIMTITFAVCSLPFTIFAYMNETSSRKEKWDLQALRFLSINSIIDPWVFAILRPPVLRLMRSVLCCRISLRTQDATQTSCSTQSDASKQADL

| Compound | Decrease [1] | Decrease [2] |
| --- | --- | --- |
| O=C1C[C@H](O)[C@@H](CO)O1 | 33% | 78% |
| O=C1C[C@H](O)[C@H](CO)O1 | 73% | – |
